From US12377112B2, “Methods of treating neurocognitive disorders, chronic pain and reducing inflammation” (priority 2019, dated 2025)

Assays:
[1] = tested on: healthy subjects; assay: Phase 1 study in healthy subjects: adverse events and acute effects; format: in vivo, human
Description: A Phase 1 randomized, double-blind, placebo-controlled study to evaluate the effect of psilocybin on cognitive and emotional processing as compared to placebo in healthy volunteers was conducted. The study investigated the short-term (Day 7) and long-term (Day 28) effects of moderate (10 mg) and high doses (25 mg) of psilocybin on key domains of cognition, such as episodic memory, attention, working and spatial memory, social cognition and elements of executive function, including cognitive flexibility.
90 healthy subjects were studied. Approximately 50% of the subjects were psilocybin-naïve. For subjects with prior psilocybin experience, the last exposure was at least 1 year prior to the signing of the Informed Consent Form (ICF). Approximately 50% of the subjects were female. Subjects were stratified by sex and age (18-35 years old; >35 years old).
Each subject was assigned 1 treatment bottle containing 5 capsules packaged in a double-blind fashion, depending on the randomized treatment arm, the bottle contained one of the following: • a. Psilocybin 10 mg: 2×5-mg oral psilocybin capsules plus 3×placebo capsules • b. Psilocybin 25 mg: 5×5-mg oral psilocybin capsules • c. Placebo: 5×placebo capsules
Each 5-mg oral psilocybin capsule comprised 5 mg crystalline psilocybin in the form of Polymorph A, 12.5 mg of SMCC 50, 79.5 mg of SMCC 90, 1 mg sodium starch glycolate, 1 mg colloidal silicon dioxide, and 1 mg sodium stearyl fumarate
Adverse events: Throughout the course of the study, all AEs were monitored and recorded. Each AE was classified according to the following criteria: • i. […] Moderate: The AE produces some impairment of functioning, but is not hazardous to the subject's health. • iii. Severe: The AE produces significant impairment of functioning or incapacitation and is a definite hazard to the subject's health.
Selected Adverse Events of included: • (a) Euphoric mood • (b) Dissociative disorder • (c) Hallucination • (d) Psychotic disorder • (e) Cognitive disorder • (f) Disturbance in attention • (g) Altered mood • (h) Impairment of psychomotor skills • (i) Inappropriate affect • (j) Overdose • (k) Intentional product misuse • (l) Illusion
For example, drug-induced hepatitis that resolved without evidence of hepatic failure would not be considered life threatening even though drug-induced hepatitis can be fatal. • (c) Inpatient hospitalization or prolongation of existing hospitalization. • (d) Persistent or significant disability/incapacity. • (e) Congenital anomaly/birth defect in the offspring of a subject who received psilocybin. • (f) Other: Important medical events that may not result in death, be life-threatening, or require hospitalization, may be considered an SAE when, based upon appropriate medical judgment, they may jeopardize the subject and may require medical or surgical intervention to prevent one of the outcomes listed in this definition. […] Visits:
Visit 3 (V3): Drug Administration (Day 0): The subject was asked to eat a light breakfast at least two hours prior to coming to the clinic for study drug administration. On Day 0 (V3), the subject underwent the SSTS, had vital signs obtained, medications reviewed, AEs recorded and eligibility reviewed prior to being randomized to study drug. The study drug was administered to up to six subjects simultaneously in individual beds separated by a curtain. The subject was invited to put on eyeshades and headphones, lie down and listen to calming music for the rest of the session (six hours). The subject was supported 1:1 with a chaperone and supervised by the study psychiatrist and lead therapist.
The effects of psilocybin usually started about 20 to 30 min after administration, becoming most intense in the first 90 to 120 min and gradually subsiding in about 5 to 6 hours. […]

[2] = tested on: healthy subjects; assay: Phase 1 study: Five Dimension Altered States of Consciousness questionnaire (5D-ASC); format: in vivo, human; settings: Post-Treatment Day 0; Psilocybin 10 mg
Description: In some embodiments, the Five Dimension Altered States of Consciousness questionnaire (5D-ASC) is utilized to evaluate the safety and/or efficacy of psilocybin. […] The 5 dimensions include oceanic boundlessness, anxious ego dissolution, visionary restructuralization, auditory alterations and reduction of vigilance.

Structure (SMILES): CN(C)CCc1c[nH]c2cccc(OP(=O)(O)O)c12 [Psilocybin, psilocybin]
- Illusion, worst severity Moderate: Events ([1]; 10 mg): 16
- Serious adverse events or adverse events that led to withdrawal ([1]; 10 mg and 25 mg, 12-week study): no serious adverse events
- Selected TEAE (any), subjects N (%) ([1]; Psilocybin 10 mg (N = 30)): 27 (90.0) N (%)
- Selected TEAE: Affect lability, Events ([1]; Psilocybin 10 mg (N = 30)): 5
- Selected TEAE: Affect lability, subjects N (%) ([1]; Psilocybin 10 mg (N = 30)): 5 (16.7) N (%)
- Selected TEAE: Change in sustained attention, Events ([1]; Psilocybin 10 mg (N = 30)): 2
- Selected TEAE: Change in sustained attention, subjects N (%) ([1]; Psilocybin 10 mg (N = 30)): 2 (6.7) N (%)
- Selected TEAE: Depressed mood, Events ([1]; Psilocybin 10 mg (N = 30)): 1
- Selected TEAE: Depressed mood, subjects N (%) ([1]; Psilocybin 10 mg (N = 30)): 1 (3.3) N (%)
- Selected TEAE: Dissociative identity disorder, Events ([1]; Psilocybin 10 mg (N = 30)): 2
- Selected TEAE: Dissociative identity disorder, subjects N (%) ([1]; Psilocybin 10 mg (N = 30)): 1 (3.3) N (%)
- Selected TEAE: Euphoric mood, Events ([1]; Psilocybin 10 mg (N = 30)): 7
- Selected TEAE: Euphoric mood, subjects N (%) ([1]; Psilocybin 10 mg (N = 30)): 7 (23.3) N (%)
- Selected TEAE: Hallucination, Events ([1]; Psilocybin 10 mg (N = 30)): 3
- Selected TEAE: Hallucination, auditory, Events ([1]; Psilocybin 10 mg (N = 30)): 4
- Selected TEAE: Hallucination, auditory, subjects N (%) ([1]; Psilocybin 10 mg (N = 30)): 4 (13.3) N (%)
- Selected TEAE: Hallucination, gustatory, Events ([1]; Psilocybin 10 mg (N = 30)): 1
- Selected TEAE: Hallucination, gustatory, subjects N (%) ([1]; Psilocybin 10 mg (N = 30)): 1 (3.3) N (%)
- Selected TEAE: Hallucination, olfactory, Events ([1]; Psilocybin 10 mg (N = 30)): 1
- Selected TEAE: Hallucination, olfactory, subjects N (%) ([1]; Psilocybin 10 mg (N = 30)): 1 (3.3) N (%)
- Selected TEAE: Hallucination, subjects N (%) ([1]; Psilocybin 10 mg (N = 30)): 3 (10.0) N (%)
- Selected TEAE: Hallucination, tactile, Events ([1]; Psilocybin 10 mg (N = 30)): 2
- Selected TEAE: Hallucination, tactile, subjects N (%) ([1]; Psilocybin 10 mg (N = 30)): 2 (6.7) N (%)
- Selected TEAE: Hallucination, visual, Events ([1]; Psilocybin 10 mg (N = 30)): 20
- Selected TEAE: Hallucination, visual, subjects N (%) ([1]; Psilocybin 10 mg (N = 30)): 18 (60.0) N (%)
- Selected TEAE: Illusion, Events ([1]; Psilocybin 10 mg (N = 30)): 25
- Selected TEAE: Illusion, subjects N (%) ([1]; Psilocybin 10 mg (N = 30)): 19 (63.3) N (%)
- Selected TEAE: Memory impairment, Events ([1]; Psilocybin 10 mg (N = 30)): 1
- Selected TEAE: Memory impairment, subjects N (%) ([1]; Psilocybin 10 mg (N = 30)): 1 (3.3) N (%)
- Selected TEAE: Mood altered, Events ([1]; Psilocybin 10 mg (N = 30)): 23
- Selected TEAE: Mood altered, subjects N (%) ([1]; Psilocybin 10 mg (N = 30)): 13 (43.3) N (%)
- Selected TEAE: Nervous system disorders (SOC), Events ([1]; Psilocybin 10 mg (N = 30)): 2
- Selected TEAE: Nervous system disorders (SOC), subjects N (%) ([1]; Psilocybin 10 mg (N = 30)): 2 (6.7) N (%)
- Selected TEAE: Psychiatric disorders (SOC), Events ([1]; Psilocybin 10 mg (N = 30)): 104
- Selected TEAE: Psychiatric disorders (SOC), subjects N (%) ([1]; Psilocybin 10 mg (N = 30)): 27 (90.0) N (%)
- Selected TEAE: Psychomotor skills impaired, Events ([1]; Psilocybin 10 mg (N = 30)): 1
- Selected TEAE: Psychomotor skills impaired, subjects N (%) ([1]; Psilocybin 10 mg (N = 30)): 1(3.3) N (%)
- Selected TEAE: Somatic hallucination, Events ([1]; Psilocybin 10 mg (N = 30)): 8
- Selected TEAE: Somatic hallucination, subjects N (%) ([1]; Psilocybin 10 mg (N = 30)): 8 (26.7) N (%)
- Selected TEAE: Substance-induced psychotic disorder, Events ([1]; Psilocybin 10 mg (N = 30)): 0
- Selected TEAE: Substance-induced psychotic disorder, subjects N (%) ([1]; Psilocybin 10 mg (N = 30)): 0 N (%)
- Selected TEAE (any), subjects N (%) ([1]; Psilocybin 25 mg (N = 30)): 27 (90.0) N (%)
- Selected TEAE: Affect lability, Events ([1]; Psilocybin 25 mg (N = 30)): 3
- Selected TEAE: Affect lability, subjects N (%) ([1]; Psilocybin 25 mg (N = 30)): 3 (10.0) N (%)
- Selected TEAE: Change in sustained attention, Events ([1]; Psilocybin 25 mg (N = 30)): 0
- Selected TEAE: Change in sustained attention, subjects N (%) ([1]; Psilocybin 25 mg (N = 30)): 0 N (%)
- Selected TEAE: Depressed mood, Events ([1]; Psilocybin 25 mg (N = 30)): 2
- Selected TEAE: Depressed mood, subjects N (%) ([1]; Psilocybin 25 mg (N = 30)): 2 (6.7) N (%)
- Selected TEAE: Dissociative identity disorder, Events ([1]; Psilocybin 25 mg (N = 30)): 2
- Selected TEAE: Dissociative identity disorder, subjects N (%) ([1]; Psilocybin 25 mg (N = 30)): 2 (6.7) N (%)
- Selected TEAE: Euphoric mood, Events ([1]; Psilocybin 25 mg (N = 30)): 8
- Selected TEAE: Euphoric mood, subjects N (%) ([1]; Psilocybin 25 mg (N = 30)): 7 (23.3) N (%)
- Selected TEAE: Hallucination, Events ([1]; Psilocybin 25 mg (N = 30)): 2
- Selected TEAE: Hallucination, auditory, Events ([1]; Psilocybin 25 mg (N = 30)): 4
- Selected TEAE: Hallucination, auditory, subjects N (%) ([1]; Psilocybin 25 mg (N = 30)): 4 (13.3) N (%)
- Selected TEAE: Hallucination, gustatory, Events ([1]; Psilocybin 25 mg (N = 30)): 0
- Selected TEAE: Hallucination, gustatory, subjects N (%) ([1]; Psilocybin 25 mg (N = 30)): 0 N (%)
- Selected TEAE: Hallucination, olfactory, Events ([1]; Psilocybin 25 mg (N = 30)): 1
- Selected TEAE: Hallucination, olfactory, subjects N (%) ([1]; Psilocybin 25 mg (N = 30)): 1 (3.3) N (%)
- Selected TEAE: Hallucination, subjects N (%) ([1]; Psilocybin 25 mg (N = 30)): 2 (6.7) N (%)
- Selected TEAE: Hallucination, tactile, Events ([1]; Psilocybin 25 mg (N = 30)): 4
- Selected TEAE: Hallucination, tactile, subjects N (%) ([1]; Psilocybin 25 mg (N = 30)): 4 (13.3) N (%)
- Selected TEAE: Hallucination, visual, Events ([1]; Psilocybin 25 mg (N = 30)): 22
- Selected TEAE: Hallucination, visual, subjects N (%) ([1]; Psilocybin 25 mg (N = 30)): 21 (70.0) N (%)
- Selected TEAE: Illusion, Events ([1]; Psilocybin 25 mg (N = 30)): 26
- Selected TEAE: Illusion, subjects N (%) ([1]; Psilocybin 25 mg (N = 30)): 18 (60.0) N (%)
- Selected TEAE: Memory impairment, Events ([1]; Psilocybin 25 mg (N = 30)): 0
- Selected TEAE: Memory impairment, subjects N (%) ([1]; Psilocybin 25 mg (N = 30)): 0 N (%)
- Selected TEAE: Mood altered, Events ([1]; Psilocybin 25 mg (N = 30)): 25
- Selected TEAE: Mood altered, subjects N (%) ([1]; Psilocybin 25 mg (N = 30)): 15 (50.0) N (%)
- Selected TEAE: Nervous system disorders (SOC), Events ([1]; Psilocybin 25 mg (N = 30)): 0
- Selected TEAE: Nervous system disorders (SOC), subjects N (%) ([1]; Psilocybin 25 mg (N = 30)): 0 N (%)
- Selected TEAE: Psychiatric disorders (SOC), Events ([1]; Psilocybin 25 mg (N = 30)): 106
- Selected TEAE: Psychiatric disorders (SOC), subjects N (%) ([1]; Psilocybin 25 mg (N = 30)): 27 (90.0) N (%)
- Selected TEAE: Psychomotor skills impaired, Events ([1]; Psilocybin 25 mg (N = 30)): 0
- Selected TEAE: Psychomotor skills impaired, subjects N (%) ([1]; Psilocybin 25 mg (N = 30)): 0 N (%)
- Selected TEAE: Somatic hallucination, Events ([1]; Psilocybin 25 mg (N = 30)): 6
- Selected TEAE: Somatic hallucination, subjects N (%) ([1]; Psilocybin 25 mg (N = 30)): 5 (16.7) N (%)
- Selected TEAE: Substance-induced psychotic disorder, Events ([1]; Psilocybin 25 mg (N = 30)): 1
- Selected TEAE: Substance-induced psychotic disorder, subjects N (%) ([1]; Psilocybin 25 mg (N = 30)): 1 (3.3) N (%)
- 5D-ASC Complex imagery, LS mean [2]: 53.0
